Measured values: ChEMBL document CHEMBL1201862, “PubChem BioAssay data set” (2004)
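Briefly, cells in 96-well plates were exposed to five compound concentrations for 48 h, and endpoints were estimated by linear interpolation. At the GI50, growth is halved.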 The source made the active and inactive calls. Rule as the data show it: active = GI50 up to about 1.1 µM and inactive = higher.

What was measured:
Assay in all cases: inhibition of tumour cell growth, NCI panel, 48 h
[1] = system: 786-0
[2] = system: MDA-MB-435
[3] = system: UO-31
[4] = system: MCF7
[5] = system: RPMI-8226
[6] = system: NCI-H23
[7] = system: CAKI-1
[8] = system: UACC-62
[9] = system: RXF 393
[10] = system: OVCAR-8
[11] = system: TK-10
[12] = system: HCT-15
[13] = system: SK-MEL-5
[14] = system: PC-3
[15] = system: U-251
[16] = system: EKVX
[17] = system: OVCAR-3
[18] = system: SW-620
[19] = system: HCC 2998

| SMILES | GI50 [1] | GI50 [2] | GI50 [3] | GI50 [4] | GI50 [5] | GI50 [6] | GI50 [7] | GI50 [8] | GI50 [9] | GI50 [10] | GI50 [11] | GI50 [12] | GI50 [13] | GI50 [14] | GI50 [15] | GI50 [16] | GI50 [17] | GI50 [18] | GI50 [19] |
| --- | --- | --- | --- | --- | --- | --- | --- | --- | --- | --- | --- | --- | --- | --- | --- | --- | --- | --- | --- |
| O=C(c1cccs1)N(C(=O)N1CCCCC1)c1ccccc1 | > 100 µM (inactive) | > 100 µM (inactive) | 62.8 µM (inactive) | > 100 µM (inactive) | > 100 µM (inactive) | > 100 µM (inactive) | > 100 µM (inactive) | > 100 µM (inactive) | 35 µM (inactive) | > 100 µM (inactive) | > 100 µM (inactive) | > 100 µM | > 100 µM (inactive) | 52.1 µM (inactive) | > 100 µM (inactive) | 14.8 µM (inactive) | > 100 µM (inactive) | > 100 µM (inactive) |  |
| COc1ccc2nc3ccc(OC)cc3c(S(=O)(=O)Cc3ccc([N+](=O)[O-])cc3)c2c1 | 66.4 µM (inactive) | > 100 µM (inactive) | > 100 µM (inactive) | > 100 µM (inactive) |  | > 100 µM (inactive) | > 100 µM (inactive) | > 100 µM (inactive) | > 100 µM (inactive) | > 100 µM (inactive) | > 100 µM (inactive) | > 100 µM |  | > 100 µM (inactive) | > 100 µM (inactive) | > 100 µM (inactive) | > 100 µM (inactive) | > 100 µM (inactive) | > 100 µM (inactive) |
| CC1(C)CC(=O)C2=C(C1)NC(=S)C(C#N)C2c1ccccc1 (stereo not drawn) | > 100 µM (inactive) | > 100 µM (inactive) | > 100 µM (inactive) | > 100 µM (inactive) |  | > 100 µM (inactive) | > 100 µM (inactive) | > 100 µM (inactive) | > 100 µM (inactive) | > 100 µM (inactive) | > 100 µM (inactive) | > 100 µM | > 100 µM (inactive) | > 100 µM (inactive) | > 100 µM (inactive) | > 100 µM (inactive) | > 100 µM (inactive) | > 100 µM (inactive) | > 100 µM (inactive) |
| CC1ON2CCCC2[C@H]1C(=O)N1C2CC3CCC2(CS1(=O)=O)C3(C)C (stereo partly drawn) | > 100 µM (inactive) | > 100 µM (inactive) | > 100 µM (inactive) | > 100 µM (inactive) | > 100 µM (inactive) | > 100 µM (inactive) | > 100 µM (inactive) | > 100 µM (inactive) | > 100 µM (inactive) | > 100 µM (inactive) | > 100 µM (inactive) | > 100 µM | > 100 µM (inactive) | > 100 µM (inactive) | > 100 µM (inactive) | > 100 µM (inactive) | > 100 µM (inactive) | > 100 µM (inactive) |  |
| CCN(CC)/C(Cl)=C(Cl)\C(=C1\Nc2ccc(OC)cc21)[N+](=O)[O-] | 47.9 µM (inactive) | 37.2 µM (inactive) | 95.1 µM (inactive) | 54.8 µM (inactive) |  | 56.6 µM (inactive) | 59 µM (inactive) | 88.5 µM (inactive) | 15.7 µM (inactive) | 63.4 µM (inactive) | 83.6 µM (inactive) | 52.7 µM | 28.6 µM (inactive) | 31.6 µM (inactive) | 37.5 µM (inactive) | 30.1 µM (inactive) | 13.7 µM (inactive) | 43 µM (inactive) | > 100 µM (inactive) |
| CN(Cc1cc(Cl)cc(Cl)c1O)Cc1c(O)ccc2ccccc12 | 21 µM (inactive) | 19.1 µM (inactive) | 17.3 µM (inactive) | 17.5 µM (inactive) | 25 µM (inactive) | 18.4 µM (inactive) | 18.3 µM (inactive) | 15.5 µM (inactive) | 13.5 µM (inactive) | 19.5 µM (inactive) | 17.1 µM (inactive) | 17.6 µM | 17.5 µM (inactive) | 16.6 µM (inactive) | 16.3 µM (inactive) | 20 µM (inactive) | 16.6 µM (inactive) | 31.7 µM (inactive) |  |
| COc1cc(/C=C2\N=C(c3ccccc3)N(/N=C/c3cc4cc(C)ccc4nc3Cl)C2=O)cc(OC)c1OC | 60.4 µM (inactive) | 15.8 µM (inactive) | 48.6 µM (inactive) | 27.4 µM (inactive) | 20.5 µM (inactive) |  | 61.7 µM (inactive) | 32.1 µM (inactive) |  | 35.1 µM (inactive) | 37.8 µM (inactive) | 32.4 µM | 37.9 µM (inactive) | 18.1 µM (inactive) | 18.9 µM (inactive) | 54.5 µM (inactive) | 26.5 µM (inactive) | 41.2 µM (inactive) | 18.8 µM (inactive) |
| CN1C(NN)=NS(=O)(=O)c2ccccc21 | > 100 µM (inactive) | > 100 µM (inactive) | > 100 µM (inactive) | > 100 µM (inactive) |  | > 100 µM (inactive) | > 100 µM (inactive) | > 100 µM (inactive) | > 100 µM (inactive) | > 100 µM (inactive) | > 100 µM (inactive) | > 100 µM | > 100 µM (inactive) | > 100 µM (inactive) | > 100 µM (inactive) | > 100 µM (inactive) | > 100 µM (inactive) | > 100 µM (inactive) | > 100 µM (inactive) |
| Cc1cc(Nc2ccc(/N=N/c3ccc(O)c4ncccc34)cc2)nc(C)n1 | 12.6 µM (inactive) | 9.29 µM (inactive) | 11 µM (inactive) | 11 µM (inactive) | 5.61 µM (inactive) | 7.24 µM (inactive) | 25.7 µM (inactive) | 6.38 µM (inactive) | 12.7 µM (inactive) | 6.61 µM (inactive) | 17.9 µM (inactive) | 4.37 µM | 10.8 µM (inactive) | 14.4 µM (inactive) | 8.13 µM (inactive) | 34.8 µM (inactive) | 7.76 µM (inactive) | 13.5 µM (inactive) |  |
| Cc1ccc2nc(Cl)c(/C=N/N3C(=O)/C(=C/c4ccc(N(C)C)cc4)N=C3c3ccccc3)cc2c1 | > 100 µM (inactive) | 22.1 µM (inactive) | 37 µM (inactive) | 29 µM (inactive) | 23.7 µM (inactive) |  | > 100 µM (inactive) | 43.4 µM (inactive) |  | 41.8 µM (inactive) | > 100 µM (inactive) | 55.2 µM | 48.5 µM (inactive) | 47.6 µM (inactive) | 26 µM (inactive) | 80.9 µM (inactive) | 13.9 µM (inactive) | 57.8 µM (inactive) | 66.2 µM (inactive) |
| O=C(O)c1ccccn1 [2-PICOLINIC ACID] | > 100 µM (inactive) | > 100 µM (inactive) | > 100 µM (inactive) | > 100 µM (inactive) | > 100 µM (inactive) | > 100 µM (inactive) | > 100 µM (inactive) | > 100 µM (inactive) | > 100 µM (inactive) | > 100 µM (inactive) | > 100 µM (inactive) | > 100 µM | > 100 µM (inactive) | > 100 µM (inactive) | > 100 µM (inactive) | > 100 µM (inactive) | > 100 µM (inactive) | > 100 µM (inactive) |  |
| COC(=O)CCC(=O)c1ccc2c(c1)CC1(C2)Cc2ccc3c(c2C1)CCCC3=O (stereo not drawn) | 29.9 µM (inactive) | 3.73 µM (inactive) | 18.2 µM (inactive) | 12.2 µM (inactive) |  | 31 µM (inactive) | 16.4 µM (inactive) | > 26.1 µM (inactive) | > 53 µM (inactive) | 26.7 µM (inactive) | 41 µM (inactive) | 8.15 µM | 10.5 µM (inactive) | 24.3 µM (inactive) | 25 µM (inactive) | 56.8 µM (inactive) | 10.1 µM (inactive) | 20.7 µM (inactive) | 38.3 µM (inactive) |
| COc1cc2c(cc1OC)CC(N=[N+]=[N-])c1cc(OC)c(OC)cc1/C=C\2 (stereo not drawn) | 34.1 µM (inactive) | 10.8 µM (inactive) | 38.5 µM (inactive) | 49.7 µM (inactive) | 35.3 µM (inactive) |  | 21 µM (inactive) | 30 µM (inactive) |  | 18.4 µM (inactive) | > 100 µM (inactive) | 40.1 µM | 23.8 µM (inactive) | 30.8 µM (inactive) | 51.2 µM (inactive) | 43.2 µM (inactive) | 53.7 µM (inactive) | 83.6 µM (inactive) | 81.7 µM (inactive) |
| COc1ccc(S(=O)(=O)n2c3c(c4ccccc42)[C@@H]2[C@@H](CCCN2C(=O)C[S+]([O-])c2ccc(C)cc2)[C@H](Cl)C3)cc1 (stereo partly drawn) | > 100 µM (inactive) | > 100 µM (inactive) | > 100 µM (inactive) | > 100 µM (inactive) |  | > 100 µM (inactive) | > 100 µM (inactive) | > 100 µM (inactive) | > 100 µM (inactive) | > 100 µM (inactive) | 32 µM (inactive) | > 100 µM | > 100 µM (inactive) | > 100 µM (inactive) | > 100 µM (inactive) | > 100 µM (inactive) | > 100 µM (inactive) | > 100 µM (inactive) | > 100 µM (inactive) |
| COC(=O)CCc1c(Cc2ccc[nH]2)[nH]c(C(=O)OCc2ccccc2)c1C | 16.3 µM (inactive) | 18.3 µM (inactive) |  | 18.5 µM (inactive) | 39.6 µM (inactive) | 21.2 µM (inactive) | 25.1 µM (inactive) | 26.4 µM (inactive) | 20.8 µM (inactive) | 24.8 µM (inactive) | 26 µM (inactive) | 16.1 µM | 15.8 µM (inactive) | 18.2 µM (inactive) | 22.3 µM (inactive) | 29.6 µM (inactive) | 15.8 µM (inactive) | 21.6 µM (inactive) |  |
| Cc1cc(S(=O)(=O)n2ccnc2O)c(SCCCN(C)C)cc1Cl | > 100 µM (inactive) | > 100 µM (inactive) | > 100 µM (inactive) | > 100 µM (inactive) |  | > 100 µM (inactive) | > 100 µM (inactive) | > 100 µM (inactive) | > 100 µM (inactive) | > 100 µM (inactive) | > 100 µM (inactive) | > 100 µM | > 100 µM (inactive) | > 100 µM (inactive) | > 100 µM (inactive) | > 100 µM (inactive) | > 100 µM (inactive) | > 100 µM (inactive) | > 100 µM (inactive) |
